Test results taken from article PMC11289455 (Scientific Reports, 2024).
Where two headings read alike, the source gives them in different places.

Columns and labels:
[1] = target: T1, β2 (beta-2 adrenergic receptor) (Homo sapiens, UniProt P07550); test: SafetyScreen44: β2; assay type: binding
T1 construct: purchased Eurofins Cerep SafetyScreen44

[2] = target: T2, ETA (endothelin receptor subtype A) (Homo sapiens, UniProt P25101); test: SafetyScreen44: ETA; assay type: binding
T2 construct: purchased Eurofins Cerep SafetyScreen44
T2 sequence (P25101 21-427): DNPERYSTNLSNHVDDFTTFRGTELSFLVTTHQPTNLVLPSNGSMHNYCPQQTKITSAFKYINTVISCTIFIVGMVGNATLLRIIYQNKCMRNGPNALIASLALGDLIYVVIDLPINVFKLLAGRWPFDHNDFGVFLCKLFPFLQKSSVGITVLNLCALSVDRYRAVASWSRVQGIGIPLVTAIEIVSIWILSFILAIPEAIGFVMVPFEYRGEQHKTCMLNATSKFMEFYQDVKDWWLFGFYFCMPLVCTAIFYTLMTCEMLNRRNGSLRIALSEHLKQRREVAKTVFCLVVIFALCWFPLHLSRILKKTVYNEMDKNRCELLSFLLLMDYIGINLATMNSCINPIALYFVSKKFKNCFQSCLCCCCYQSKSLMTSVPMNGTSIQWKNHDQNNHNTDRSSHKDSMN

[3] = target: T3, H1 (histamine H1 receptor) (Homo sapiens, UniProt P35367); test: SafetyScreen44: H1; assay type: binding
T3 construct: purchased Eurofins Cerep SafetyScreen44
T3 sequence (P35367 whole entry): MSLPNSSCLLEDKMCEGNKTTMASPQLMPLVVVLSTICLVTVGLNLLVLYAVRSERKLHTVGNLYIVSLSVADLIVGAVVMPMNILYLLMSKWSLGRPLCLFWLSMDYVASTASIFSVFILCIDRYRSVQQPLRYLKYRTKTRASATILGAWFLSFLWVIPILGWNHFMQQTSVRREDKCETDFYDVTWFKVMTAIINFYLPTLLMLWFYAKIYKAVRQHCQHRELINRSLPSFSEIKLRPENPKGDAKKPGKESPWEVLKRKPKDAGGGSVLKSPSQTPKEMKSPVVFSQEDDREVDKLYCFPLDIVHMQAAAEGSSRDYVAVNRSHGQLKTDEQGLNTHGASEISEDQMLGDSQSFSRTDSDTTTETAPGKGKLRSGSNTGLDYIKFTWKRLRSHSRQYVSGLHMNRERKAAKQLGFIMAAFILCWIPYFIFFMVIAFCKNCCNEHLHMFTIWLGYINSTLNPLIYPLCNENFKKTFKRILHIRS

[4] = target: T4, MAO-A (monoamine oxidase A) (Rattus norvegicus, UniProt P21396); test: SafetyScreen44: MAO-A; assay type: binding
T4 construct: purchased Eurofins Cerep SafetyScreen44
T4 sequence (P21396 1-526): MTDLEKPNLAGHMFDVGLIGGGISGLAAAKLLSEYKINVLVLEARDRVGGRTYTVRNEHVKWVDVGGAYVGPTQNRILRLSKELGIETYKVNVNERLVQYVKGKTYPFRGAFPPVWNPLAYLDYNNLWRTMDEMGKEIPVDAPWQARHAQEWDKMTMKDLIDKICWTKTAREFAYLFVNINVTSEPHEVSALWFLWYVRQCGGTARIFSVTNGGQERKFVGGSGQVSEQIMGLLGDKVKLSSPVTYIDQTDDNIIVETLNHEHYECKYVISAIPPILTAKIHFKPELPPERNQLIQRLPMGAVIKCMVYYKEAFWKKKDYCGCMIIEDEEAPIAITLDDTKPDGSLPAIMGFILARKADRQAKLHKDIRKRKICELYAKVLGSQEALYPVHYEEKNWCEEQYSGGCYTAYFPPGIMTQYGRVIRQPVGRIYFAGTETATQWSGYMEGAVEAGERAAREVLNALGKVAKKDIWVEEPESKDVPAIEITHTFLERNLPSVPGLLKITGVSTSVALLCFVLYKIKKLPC

[5] = target: T5, 5-HT3 (serotonin 3 receptor) (Homo sapiens, UniProt P46098); test: SafetyScreen44: 5-HT3; assay type: binding
T5 construct: purchased Eurofins Cerep SafetyScreen44
T5 sequence (P46098 24-478): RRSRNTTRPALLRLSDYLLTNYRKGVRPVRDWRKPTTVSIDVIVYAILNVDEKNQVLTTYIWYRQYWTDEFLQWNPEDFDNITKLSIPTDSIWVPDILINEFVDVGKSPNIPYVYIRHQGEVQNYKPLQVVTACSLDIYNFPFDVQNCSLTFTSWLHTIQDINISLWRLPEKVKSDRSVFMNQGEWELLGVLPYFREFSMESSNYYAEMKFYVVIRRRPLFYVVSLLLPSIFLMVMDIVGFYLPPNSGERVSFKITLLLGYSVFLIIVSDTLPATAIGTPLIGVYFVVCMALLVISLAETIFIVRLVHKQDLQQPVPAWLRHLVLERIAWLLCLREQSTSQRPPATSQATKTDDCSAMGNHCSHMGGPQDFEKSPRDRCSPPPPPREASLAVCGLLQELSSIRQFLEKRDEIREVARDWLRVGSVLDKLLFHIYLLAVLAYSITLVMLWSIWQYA

[6] = target: T6, Dopamine transporter (Homo sapiens, UniProt Q01959); test: SafetyScreen44: dopamine transporter; assay type: binding
T6 construct: purchased Eurofins Cerep SafetyScreen44
T6 sequence (Q01959 whole entry): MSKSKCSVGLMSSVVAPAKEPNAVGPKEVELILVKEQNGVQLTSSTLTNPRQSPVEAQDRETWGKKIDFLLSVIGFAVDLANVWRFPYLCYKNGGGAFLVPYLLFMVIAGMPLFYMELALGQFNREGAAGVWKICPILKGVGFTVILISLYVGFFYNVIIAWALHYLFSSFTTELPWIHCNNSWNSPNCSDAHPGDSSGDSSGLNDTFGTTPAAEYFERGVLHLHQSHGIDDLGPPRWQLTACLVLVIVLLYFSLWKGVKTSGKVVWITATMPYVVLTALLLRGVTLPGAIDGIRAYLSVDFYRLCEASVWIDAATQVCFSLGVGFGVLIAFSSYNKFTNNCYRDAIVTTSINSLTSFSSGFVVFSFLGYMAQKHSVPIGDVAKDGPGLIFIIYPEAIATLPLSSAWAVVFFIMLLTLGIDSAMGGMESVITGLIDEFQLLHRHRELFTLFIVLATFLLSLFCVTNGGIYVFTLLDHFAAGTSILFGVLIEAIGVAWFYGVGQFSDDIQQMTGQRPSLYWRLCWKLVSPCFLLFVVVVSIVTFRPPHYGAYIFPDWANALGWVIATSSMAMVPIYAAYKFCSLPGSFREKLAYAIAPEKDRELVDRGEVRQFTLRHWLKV

[7] = target: T7, COX2 (Homo sapiens, UniProt P35354); test: SafetyScreen44: COX2; assay type: biochemical
T7 construct: purchased Eurofins Cerep SafetyScreen44
T7 sequence (P35354 18-604): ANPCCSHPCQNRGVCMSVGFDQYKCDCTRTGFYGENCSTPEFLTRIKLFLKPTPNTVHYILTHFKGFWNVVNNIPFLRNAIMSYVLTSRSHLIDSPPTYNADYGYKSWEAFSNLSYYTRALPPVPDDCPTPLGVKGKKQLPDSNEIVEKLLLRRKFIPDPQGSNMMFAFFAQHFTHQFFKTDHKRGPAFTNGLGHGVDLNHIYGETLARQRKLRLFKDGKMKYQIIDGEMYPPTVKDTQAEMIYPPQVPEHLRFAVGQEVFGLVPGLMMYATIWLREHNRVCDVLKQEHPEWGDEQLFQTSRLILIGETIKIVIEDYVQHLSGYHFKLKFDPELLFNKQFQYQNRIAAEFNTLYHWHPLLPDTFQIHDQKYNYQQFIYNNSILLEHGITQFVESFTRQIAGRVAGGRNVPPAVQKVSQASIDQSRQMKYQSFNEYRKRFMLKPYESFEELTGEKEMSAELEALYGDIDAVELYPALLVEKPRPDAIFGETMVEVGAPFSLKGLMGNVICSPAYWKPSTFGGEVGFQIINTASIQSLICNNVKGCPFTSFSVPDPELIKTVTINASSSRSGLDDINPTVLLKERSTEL

T1 sequence (P07550 whole entry): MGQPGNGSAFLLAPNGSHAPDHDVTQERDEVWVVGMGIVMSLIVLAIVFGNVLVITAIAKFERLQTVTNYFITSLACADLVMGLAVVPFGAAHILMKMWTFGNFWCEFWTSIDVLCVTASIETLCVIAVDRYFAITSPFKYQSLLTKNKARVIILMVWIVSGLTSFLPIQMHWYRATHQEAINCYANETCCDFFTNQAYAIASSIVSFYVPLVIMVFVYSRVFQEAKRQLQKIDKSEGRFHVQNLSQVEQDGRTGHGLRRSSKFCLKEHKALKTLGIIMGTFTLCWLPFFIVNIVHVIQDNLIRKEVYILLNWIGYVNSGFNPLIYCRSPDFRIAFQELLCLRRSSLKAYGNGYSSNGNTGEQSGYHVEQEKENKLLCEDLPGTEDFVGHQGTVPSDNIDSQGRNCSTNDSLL

SMILES: CC(=O)NCCCC[C@@H]1NC(=O)[C@H](Cc2c[nH]c3c(C)cccc23)NC(=O)[C@H]([C@@H](C)O)NC(=O)[C@H](CC(N)=O)NC(=O)[C@@H](NC(C)=O)C(C)(C)SSC(C)(C)[C@@H](C(=O)N[C@@H](Cc2ccc(OCCN)cc2)C(=O)N[C@@H](Cc2ccc3ccccc3c2)C(=O)NC2(C(=O)N[C@@H](CCC(=O)O)C(=O)N[C@@H](CC(N)=O)C(=O)N[C@@H](Cc3cccnc3)C(=O)N(C)CC(N)=O)CCOCC2)NC1=O [JNJ-77242113, S^3,1,S^3,6-cyclo[N-acetyl-3-sulfanyl-L-valyl-L-asparaginyl-L-threonyl-7-methyl-L-tryptophyl-N^6-acetyl-L-lysyl-3-sulfanyl-L-valyl-O-(2-aminoethyl)-L-tyrosyl-3-(naphthalen-2-yl)-L-alanyl-4-aminooxan-4-carbonyl-L-α-glutamyl-L-asparaginyl-3-(pyridin-3-yl)-L-alanyl-N^2-methylglycinamide]]
- inhibition at 10 µM ([1]; 1st run, read-out: Percent inhibition of control ligand binding, β2, 1st run): -8.2%
- inhibition at 10 µM ([1]; 2nd run, read-out: Percent inhibition of control ligand binding, β2, 2nd run): -0.6%
- inhibition at 10 µM ([1]; mean of 2 runs, read-out: Percent inhibition of control ligand binding, β2, Mean): -4.4%
- inhibition at 10 µM ([2]; 1st run, read-out: Percent inhibition of control ligand binding, ETA, 1st run): -31.3%
- inhibition at 10 µM ([2]; 2nd run, read-out: Percent inhibition of control ligand binding, ETA, 2nd run): -12.9%
- inhibition at 10 µM ([2]; mean of 2 runs, read-out: Percent inhibition of control ligand binding, ETA, Mean): -22.1%
- inhibition at 10 µM ([3]; 1st run, read-out: Percent inhibition of control ligand binding, H1, 1st run): -8.4%
- inhibition at 10 µM ([3]; 2nd run, read-out: Percent inhibition of control ligand binding, H1, 2nd run): -9.8%
- inhibition at 10 µM ([3]; mean of 2 runs, read-out: Percent inhibition of control ligand binding, H1, Mean): -9.1%
- inhibition at 10 µM ([4]; 1st run, read-out: Percent inhibition of control ligand binding, MAO-A, 1st run): 12%
- inhibition at 10 µM ([4]; 2nd run, read-out: Percent inhibition of control ligand binding, MAO-A, 2nd run): 10.3%
- inhibition at 10 µM ([4]; mean of 2 runs, read-out: Percent inhibition of control ligand binding, MAO-A, Mean): 11.2%
- inhibition at 10 µM ([5]; 1st run, read-out: Percent inhibition of control ligand binding, 5-HT3, 1st run): 0.7%
- inhibition at 10 µM ([5]; 2nd run, read-out: Percent inhibition of control ligand binding, 5-HT3, 2nd run): 3.4%
- inhibition at 10 µM ([5]; mean of 2 runs, read-out: Percent inhibition of control ligand binding, 5-HT3, Mean): 2.1%
- inhibition at 10 µM ([6]; 1st run, read-out: Percent inhibition of control ligand binding, Dopamine transporter, 1st run): -3.6%
- inhibition at 10 µM ([6]; 2nd run, read-out: Percent inhibition of control ligand binding, Dopamine transporter, 2nd run): -4.4%
- inhibition at 10 µM ([6]; mean of 2 runs, read-out: Percent inhibition of control ligand binding, Dopamine transporter, Mean): -4%
- inhibition at 10 µM ([7]; 1st run, read-out: Percent inhibition of control ligand binding, COX2, 1st run): 7.8%
- inhibition at 10 µM ([7]; 2nd run, read-out: Percent inhibition of control ligand binding, COX2, 2nd run): -0.9%
- inhibition at 10 µM ([7]; mean of 2 runs, read-out: Percent inhibition of control ligand binding, COX2, Mean): 3.4%
